Results: US20140171389A1, “METHODS FOR TREATING CANCER” (THRESHOLD PHARMACEUTICALS, INC., priority 2011, published 2014)
Like-named read-outs stand apart in the source and are kept apart here.

Experiments:
EM9 cells = assay: Cytotoxicity in EM9 cells deficient in base excision repair gene XRCC1 (Table 7); assay type: cell-based; conditions: for Fold difference in sensitivity (anoxia) / Fold difference in sensitivity (normoxia): AA8 versus EM9
From the text: (§1) In contrast, the activity of the monoalkylating agent temozolomide was enhanced by ABT-888 in these cancer cell lines (see, Tables 1, 3, and 5).

H460 cell lines = assay: In vitro cytotoxicity (AlamarBlue) with or without ABT-888, H460; assay type: cell-based; conditions: Homo sapiens
Experimental: (§2) The effect of the PARP inhibitor, ABT-888, on TH-302 activity was investigated in three human cancer cell lines: human non small cell lung H460, human melanoma A375, and human colorectal carcinoma HCT116.
(§3) Cells were pretreated with ABT-888 for 1 h under normoxia, and then co-incubated with TH-302 for additional 2 h under either normoxia or hypoxia. After 3 days of incubation in the presence of ABT-888, cell viability was determined using AlamarBlue. For the temozolomide (TMZ) group, cells were co-treated with temozolomide and ABT-888 for 3 days after 1 h pretreatment with ABT-888.

[1] = system: multiple human cancer cell lines; assay: Hypoxia-enhanced cytotoxicity in vitro; assay type: cell-based
From the text: In these examples, pharmacological tools were utilized to test the underlying mechanisms of DNA repair processes involved in the cellular response to TH-302. In vitro cytotoxicity assays were used as the primary read-out.

AA8 cells = assay: Cytotoxicity in wild type AA8 cells, 2 h treatment, alamar blue (Table 8); assay type: cell-based, chinese hamster; conditions: for IC50: Cricetulus griseus
Experimental: (§4) The role of homology-directed DNA repair (HDR) on TH-302 was investigated in wild type and HDR deficient chinese hamster ovary (CHO) cells. […] TH-302 activity can be modulated by pharmacological modulators of both reductases and DNA damage and repair pathways. TH-302 activity can be inhibited by the flavin reductase inhibitor DPI. TH-302 activity was not affected by the PARP inhibitor ABT-888.
(§5) The wild type AA8 cells and the HDR impaired irs1SF and UV41 cells were treated with TH-302 for 2 h, washed, and then incubated for 3 days. At the end of the incubation, viable cells were quantified using alamar blue.

UV41 cells = assay: Cytotoxicity in HDR impaired UV41 cells, 2 h treatment, alamar blue (Table 8); assay type: cell-based, chinese hamster; conditions: for IC50: Cricetulus griseus
Experimental: as §4, §5

A375 cell lines = assay: In vitro cytotoxicity (AlamarBlue) with or without ABT-888, A375; assay type: cell-based; conditions: Homo sapiens
Experimental: as §2, §3

[2] = Modulation of TH-302 activity by the flavin reductase inhibitor DPI; assay type: cell-based; conditions: with DPI
From the text: as §4

irs1SF cells = assay: Cytotoxicity in HDR impaired irs1SF cells, 2 h treatment, alamar blue (Table 8); assay type: cell-based, chinese hamster; conditions: for IC50: Cricetulus griseus
Experimental: as §4, §5

HCT116 cell lines = assay: In vitro cytotoxicity (AlamarBlue) with or without ABT-888, HCT116; assay type: cell-based; conditions: Homo sapiens
Experimental: as §2, §3

AA8 = assay: Cytotoxicity in AA8 cells (Table 7); assay type: cell-based, chinese hamster; conditions: Cricetulus griseus
From the text: as §1

[3] = read-out: IC50 (μM) Normoxia EM9
[4] = CHO-AA8, read-out: IC50 (μM) Anoxia AA8
[5] = CHO-AA8, read-out: IC50 (μM) Normoxia AA8

## Cn1c(COP(=O)(NCCBr)NCCBr)cnc1[N+](=O)[O-] [TH-302]
EM9 cells
  Fold difference in sensitivity (anoxia): 1 fold
EM9 cells; normoxia
  Fold difference in sensitivity (normoxia): >1.3 fold
EM9 cells; read-out: IC50 (μM) Anoxia EM9
  IC50: 14 µM
EM9 cells; [3]
  IC50: 760 µM
H460 cell lines; NCI-H460, read-out: IC50 (μM) Hypoxia
  IC50: 0.2 µM
H460 cell lines; NCI-H460, read-out: IC50 (μM) Normoxia
  IC50: 47 µM
[1]
  hypoxia-enhanced cytotoxicity: about 400 fold
AA8 cells; CHO-AA8, N2, read-out: IC50 (μM) N2
  IC50: 1.1 µM
AA8 cells; CHO-AA8, air, read-out: IC50 (μM) Air
  IC50: 340 µM
AA8 cells; ratio air/N2
  HCR: 310
UV41 cells; N2, read-out: IC50 (μM) N2
  IC50: 0.02 µM
UV41 cells; air, read-out: IC50 (μM) Air
  IC50: 16 µM
UV41 cells; ratio air/N2
  HCR: 800
A375 cell lines; A-375, read-out: IC50 (μM) Hypoxia
  IC50: 1.5 µM
A375 cell lines; A-375, read-out: IC50 (μM) Normoxia
  IC50: 230 µM
[2]
  TH-302 activity in the presence of the flavin reductase inhibitor DPI: inhibited
irs1SF cells; N2, read-out: IC50 (μM) N2
  IC50: 0.5 µM
irs1SF cells; air, read-out: IC50 (μM) Air
  IC50: 95 µM
irs1SF cells; ratio air/N2
  HCR: 190
HCT116 cell lines; HCT-116, read-out: IC50 (μM) Hypoxia
  IC50: 0.1 µM
HCT116 cell lines; HCT-116, read-out: IC50 (μM) Normoxia
  IC50: 61 µM
AA8; [4]
  IC50: 10 µM
AA8; [5]
  IC50: > 1000 µM

## Cn1nnc2c(C(N)=O)ncn2c1=O [Temozolomide, temozolomide, reference compound]
EM9 cells; normoxia
  Fold difference in sensitivity (normoxia): >5.9 fold
EM9 cells; EM9, normoxia, read-out: IC50 (μM) Normoxia EM9
  IC50: 168 µM
H460 cell lines; NCI-H460, H460, normoxia, 3 days co-treatment after 1 h ABT-888 pretreatment, read-out: IC50 (μM), Normoxia
  IC50: 540 µM
A375 cell lines; A-375, A375, normoxia, 3 days co-treatment after 1 h ABT-888 pretreatment, read-out: IC50 (μM), Normoxia
  IC50: 510 µM
HCT116 cell lines; HCT-116, HCT116, normoxia, 3 days co-treatment after 1 h ABT-888 pretreatment, read-out: IC50 (μM), Normoxia
  IC50: 890 µM
AA8; CHO-AA8, AA8, normoxia, read-out: IC50 (μM) Normoxia AA8
  IC50: > 1000 µM

## Nc1n[n+]([O-])c2ccccc2[n+]1[O-] [Tirapazamine, tirapazamine]
EM9 cells
  Fold difference in sensitivity (anoxia): 3 fold
EM9 cells; read-out: IC50 (μM) Anoxia EM9
  IC50: 15 µM
EM9 cells; [3]
  IC50: > 1000 µM
AA8; [4]
  IC50: 50 µM
AA8; [5]
  IC50: > 1000 µM
